Assay results: patent publication US12599625B2, “Treatment of ARDS and other conditions caused by acutely elevated cytokine levels and post ARDS chronic cytokine production using inhaled anesthetics” (priority 2021, dated 2026)

Tested on: substance P
Assay: Clinical observation: relief of symptoms caused by acute and chronic excessive substance P
Assay type: in vivo, human

With `[N-]=[N+]=O` [nitrous oxide] as the compound, how does the “relief of symptoms of COVID-19 and asthma” value (about 20 minutes of nitrous oxide every about 4-6 hours) read?
The value was “may be relieved”.

What about the “relief of symptoms of COPD and asthma” value (nitrous oxide every about 4-6 hours) of the same compound?
The value was “ray be relived”.
